Measured values from patent US10285982B2, “3-(1H-pyrrolo[2,3-B]pyridin-2-yl)-1H-pyrazolo[3,4-C]pyridines and therapeutic uses thereof” (Samumed, LLC, priority 2015, dated 2019).

Tests used:
Format in all cases: cell-based
[1] = tested on: Wnt activity (Sp5-Luc reporter, SW480 colon carcinoma cells); assay: Wnt activity screening assay, Sp5-Luc reporter gene in SW480 cells; conditions: Homo sapiens; for EC50: overnight incubation
Source text: The screening assay for Wnt activity is described as follows. Reporter cell lines can be generated by stably transducing cancer cell lines (e.g., colon cancer) or primary cells (e.g., IEC-6 intestinal cells) with a lentiviral construct that includes a Wnt-responsive promoter driving expression of the firefly luciferase gene.
SW480 colon carcinoma cells were transduced with a lentiviral vector expressing luciferase with a human Sp5 promoter consisting of a sequence of eight TCF/LEF binding sites. SW480 cells stably expressing the Sp5-Luc reporter gene and a hygromycin resistance gene were selected by treatment with 150 μg/mL of hygromycin for 7 days. These stably transduced SW480 cells were expanded in cell culture and used for all further screening activities. Each compound was dissolved in DMSO as a 10 mM stock and used to prepare compound source plates. Serial dilution (1:3, 10-point dose-response curves starting from 10 μM) and compound transfer was performed using the ECHO 550 (Labcyte, Sunnyvale, Calif.) into 384-well white solid bottom assay plates (Greiner Bio-One) with appropriate DMSO backfill for a final DMSO concentration of 0.1%. For Sp5-Luc reporter gene assays, the cells were plated at 4,000 cells/well in 384-well plates with medium containing 1% fetal bovine serum and incubated overnight at 37° C. and 5% CO2. Following incubation, 20 μl of BrightGlo luminescence reagent (Promega) was added to each well of the 384-well assay plates. The plates were placed on an orbital shaker for 2 min and then luminescence was quantified using the Envision (Perkin Elmer) plate reader. Readings were normalized to DMSO only treated cells, and normalized activities were utilized for EC50 calculations using the dose-response log (inhibitor) vs. response-variable slope (four parameters) nonlinear regression feature available in GraphPad Prism 5.0 (or Dotmatics). For EC50 of >10 μM, the percent inhibition at 10 μM is provided.

[2] = tested on: SW480 colon cancer cells; assay: Cell viability assay (CellTiter-Blue); conditions: Homo sapiens, 96 h, four days
Protocol: Representative compounds were screened using the following assay procedure to assess the effect on cell viability as described below.
Each compound was dissolved in DMSO as a 10 mM stock and used to prepare compound source plates. Serial dilution (1:3, 8-point dose-response curves from 10 μM to 0.0045 μM) and compound transfer was performed using the ECHO 550 (Labcyte, Sunnyvale, Calif.) into 96-well clear bottom, black-walled plates (Corning-Costar).
Approximately 2×10^3 SW480 colon cancer cells were seeded into each well and allowed to incubate in the presence or absence of compound for four days at 37° C./5% CO2. Eight replicates of DMSO-treated cells served as controls and cells treated with compound were performed in duplicate.
After incubation, 20 μL of CellTiter-Blue (Promega) was added to each well allowed to incubate for approximately 3 hours. This reagent was a buffered solution which contains resazurin, metabolically active cells were able to reduce rezarurin (blue) into resorufin (pink) which was highly fluorescent. This measured fluorescence was used as a readout for cell viability.
After incubation, the plates were read at Ex 560 nm Em 590 nm (Cytation 3, BioTek). Dose-response curves were generated and EC50 concentration values were calculated using non-linear regression curve fit in the GraphPad Prism (San Diego, Calif.) or Dotmatics' Studies Software (Bishops Stortford, UK). For EC50 of >10 μM, the percent inhibition at 10 μM is provided.

[3] = tested on: primary human fibroblasts derived from IPF patients (LL29 cells) treated with TGF-β1; assay: Inhibition of fibrotic process, αSMA staining in TGF-β1 treated LL29 fibroblasts; conditions: Fibroblast, 96 h, % αSMA positive LL29 cells, TGF-β1 20 ng/mL, 4 days
Source text: Representative compounds were screened using primary human fibroblasts (derived from IPF patients) treated with TGF-β1 to determine their ability to inhibit the fibrotic process.
Primary human fibroblasts derived from IPF patients (LL29 cells) [^1Xiaoqiu Liu, et. al., “Fibrotic Lung Fibroblasts Show Blunted Inhibition by cAMP Due to Deficient cAMP Response Element-Binding Protein Phosphorylation”, Journal of Pharmacology and Experimental Therapeutics (2005), 315(2), 678-687; ^2Watts, K. L., et. al., “RhoA signaling modulates cyclin D1 expression in human lung fibroblasts; implications for idiopathic pulmonary fibrosis”, Respiratory Research (2006), 7(1), 88] were obtained from American Type Culture Collection (ATCC) and expanded in F12 medium supplemented with 15% Fetal Bovine Serum and Penicillin/Streptomycin.
Each compound was dissolved in DMSO as a 10 mM stock and used to prepare compound source plates. Serial dilution (1:2, 11-point dose-response curves from 10 μM to 1.87 nM) and compound transfer was performed using the ECHO 550 (Labcyte, Sunnyvale, Calif.) into 384-well clear bottom assay plates (Greiner Bio-One) with appropriate DMSO backfill for a final DMSO concentration of 0.1%. LL29 cells are plated at 1,500 cells/well in 80 μL/well F12 medium supplemented with 1% Fetal Bovine Serum. One hour after addition of the cells, TGF-β1 (Peprotech; 20 ng/mL) was added to the plates to induce fibrosis (ref. 1 and 2 above). Wells treated with TGF-β1 and containing DMSO were used as controls. Cells were incubated at 37° C. and 5% CO2 for 4 days. Following incubation for 4 days, SYTOX green nucleic acid stain (Life Technologies [Thermo Fisher Scientific]) was added to the wells at a final concentration of 1 μM and incubated at room temperature for 30 min. Cells were then fixed using 4% formaldehyde (Electron Microscopy Sciences), washed 3 times with PBS followed by blocking and permeabilization using 3% Bovine Serum Albumin (BSA; Sigma) and 0.3% Triton X-100 (Sigma) in PBS. Cells were then stained with antibody specific to α-smooth muscle actin (αSMA; Abcam) (ref. 1 and 2 above) in 3% Bovine Serum Albumin (BSA; Sigma) and 0.3% Triton X-100 (Sigma) in PBS, and incubated overnight at 4° C. Cells were then washed 3 times with PBS, followed by incubation with Alexa Flor-647 conjugated secondary antibody (Life Technologies [Thermo Fisher Scientific]) and DAPI at room temperature for 1 hour. Cells were then washed 3 times with PBS and plates were sealed for imaging. αSMA staining was imaged by excitation at 630 nm and emission at 665 nm and quantified using the Compartmental Analysis program on the CellInsight CX5 (Thermo Scientific). Dead or apoptotic cells were excluded from analysis based on positive SYTOX green staining. % of total cells positive for αSMA were counted in each well and normalized to the average of 11 wells treated with TGF-β1 on the same plate using Dotmatics' Studies Software. The normalized averages (fold change over untreated) of 3 replicate wells for each compound concentration were used to create dose-responses curves and EC50 values were calculated using non-linear regression curve fit in the Dotmatics' Studies Software. For EC50 of >10 μM, the percent inhibition at 10 μM is provided.

[4] = tested on: IL-6 (THP-1 cells); assay: IL-6 inhibition in LPS-stimulated THP-1 cells (HTRF); conditions: Homo sapiens; IL-6 in THP-1 cells, LPS 500 ng/mL, 22 hours
Protocol: Human monocyte cell line (THP-1 cells; Catalog # TIB-202, ATCC, Manassas, Va.) were cultured in Roswell Park Memorial Institute (RPMI) 1640 Medium (Catalog #21870-100, Buffalo, N.Y.) with 1% L-glutamine, 1% HEPES, 1% Sodium Pyruvate, 2% Sodium Bicarbonate supplemented with 100 units/mL penicillin, 50 μg/mL streptomycin, 2-mercaptoethanol (0.05 mM) [basal medium] and 10% fetal bovine serum (Catalog #16140089, Life Technologies, Carlsbad, Calif.) at 37° C. and 5% CO2.
THP-1 cells were cultured in basal media with 1% FBS for 24 hours before the start of the assay. Each compound was dissolved in DMSO as a 10 mM stock and used to prepare compound source plates. Serial dilution (1:3, 10-point dose-response curves starting from 10 μM) and compound transfer was performed using the ECHO 550 (Labcyte, Sunnyvale, Calif.) into 384-well white low volume assay plates (Greiner Bio-One) with appropriate DMSO backfill for a final DMSO concentration of 0.1%. THP-1 cells were plated at 5000 cells/well in the 384-well plates and incubated at 37° C. for 2 h. 500 ng/mL of LPS was added after 2 hours and cells were incubated for another 22 hours at 37° C. Plates were spun in a centrifuge for 1 minute at […] and a mixture of anti-IL6 XL665, and anti-IL6 Cryptate diluted in reconstitution buffer (Cisbio Inc.) was added to each well. Following incubation for 3 hrs at room temperature, Homogeneous Time-Resolved Fluorescence (HTRF) was measured using the Envision (Perkin Elmer) at 665 nm and […]. The ratio of fluorescence at 665 nm to 620 nm was used as a readout for IL6 quantification. All samples were processed in duplicate. Readings were normalized to DMSO treated cells and normalized activities were utilized for EC50 calculations using the dose-response log (inhibitor) vs. response-variable slope (four parameters) nonlinear regression feature available in GraphPad Prism 5.0 (or Dotmatics). For EC50 of >10 μM, the percent inhibition at 10 μM is provided.

SMILES	EC50 [1] [µM]	EC50 [2] [µM]	EC50 [3] [µM]	EC50 [4] [µM]	inhibition at 10 µM ([1]; at 10 μM, given where EC50 >10 μM, read-out: percent inhibition at 10 μM) [%]
Cc1ccncc1-c1cc2c(-c3cc4c(-c5ccc(F)cc5)ccnc4[nH]3)n[nH]c2cn1 [Compound 33, 3-(4-(4-Fluorophenyl)-1H-pyrrolo[2,3-b]pyridin-2-yl)-5-(4-methylpyridin-3-yl)-1H-pyrazolo[3,4-c]pyridine]	0.642	1.05	0.146	4.05	
CC(C)Nc1cncc(-c2cc3c(-c4cc5c(-c6ccc(F)cc6)ccnc5[nH]4)n[nH]c3cn2)c1 [Compound 40, 5-(3-(4-(4-Fluorophenyl)-1H-pyrrolo[2,3-b]pyridin-2-yl)-1H-pyrazolo[3,4-c]pyridin-5-yl)-N-isopropylpyridin-3-amine]	0.223	0.179	0.043	9.38	
CC(C)(C)CC(=O)Nc1cncc(-c2cc3c(-c4cc5c(-c6ccc(F)cc6)ccnc5[nH]4)n[nH]c3cn2)c1 [Compound 44, N-(5-(3-(4-(4-Fluorophenyl)-1H-pyrrolo[2,3-b]pyridin-2-yl)-1H-pyrazolo [3,4-c]pyridin-5-yl)pyridin-3-yl)-3,3-dimethylbutanamide]	0.144	1.16	0.311	4.4	
Fc1ccc(-c2ccnc3[nH]c(-c4n[nH]c5cnc(-c6cncc(CN7CCC(F)(F)C7)c6)cc45)cc23)cc1 [Compound 54, 5-(5-((3,3-Difluoropyrrolidin-1-yl)methyl)pyridin-3-yl)-3-(4-(4-fluorophenyl)-1H-pyrrolo[2,3-b]pyridin-2-yl)-1H-pyrazolo[3,4-c]pyridine]	> 10	1.4	1.11	2.05	28.1
Fc1ccccc1-c1ccnc2[nH]c(-c3n[nH]c4cnc(-c5ccccn5)cc34)cc12 [Compound 84, 3-(4-(2-Fluorophenyl)-1H-pyrrolo[2,3-b]pyridin-2-yl)-5-(pyridin-2-yl)-1H-pyrazolo[3,4-c]pyridine]	0.279	0.411	0.561	6.42	
c1cncc(-c2cc3c(-c4cc5c(N6CCCCC6)ccnc5[nH]4)n[nH]c3cn2)c1 [Compound 172, 3-(4-(Piperidin-1-yl)-1H-pyrrolo[2,3-b]pyridin-2-yl)-5-(pyridin-3-yl)-1H-pyrazolo[3,4-c]pyridine]	2.24	3.54	1.73	3.4	
CC(C)C(=O)Nc1cncc(-c2cc3c(-c4cc5c(N6CCCCC6)ccnc5[nH]4)n[nH]c3cn2)c1 [Compound 177, N-(5-(3-(4-(Piperidin-1-yl)-1H-pyrrolo[2,3-b]pyridin-2-yl)-1H-pyrazolo[3,4-c]pyridin-5-yl)pyridin-3-yl)isobutyramide]	0.867	1.08	1.49	9.85	
CC(C)Nc1cncc(-c2cc3c(-c4cc5c(N6CCCCC6)ccnc5[nH]4)n[nH]c3cn2)c1 [Compound 180, N-Isopropyl-5-(3-(4-(piperidin-1-yl)-1H-pyrrolo[2,3-b]pyridin-2-yl)-1H-pyrazolo[3,4-c]pyridin-5-yl)pyridin-3-amine]	1.63	1.54	2.43	9.55	
CC(C)(C)CC(=O)Nc1cncc(-c2cc3c(-c4cc5c(N6CCCCC6)ccnc5[nH]4)n[nH]c3cn2)c1 [Compound 184, 3,3-Dimethyl-N-(5-(3-(4-(piperidin-1-yl)-1H-pyrrolo[2,3-b]pyridin-2-yl)-1H-pyrazolo[3,4-c]pyridin-5-yl)pyridin-3-yl)butanamide]	3.23	4.3	1.97	3.31	
O=C(Nc1cncc(-c2cc3c(-c4cc5c(-c6ccoc6)ccnc5[nH]4)n[nH]c3cn2)c1)C1CC1 [Compound 328, N-(5-(3-(4-(Furan-3-yl)-1H-pyrrolo[2,3-b]pyridin-2-yl)-1H-pyrazolo[3,4-c]pyridin-5-yl)pyridin-3-yl)cyclopropanecarboxamide]	0.121	0.107	0.037	0.533	
